# Like-named read-outs stand apart in the source and are kept apart here.
# Tests used:
# [1] = tested on: Huh-7 cells carrying a HCV genotype 1a replicon; test: Biological Example 3: cytotoxicity in combination studies (MacSynergy II); conditions: in combination with Compound 4
# [2] = Biological Example 3: cytotoxicity (calcein AM), CC50; assay type: cell-based; conditions: human, Huh-7 cells carrying a HCV genotype 1a replicon; HCV genotype 1a replicon cells; calcein AM
# Description: The HCV replicon assay was a multiplex assay which can assess both cytotoxicity and anti-replicon activity from the same well. The CC50 assay was performed first.
# The cytotoxicity effect was determined by calcein AM conversion to fluorescent product. The percent cytotoxicity was calculated by equation 1:
# (§1) [formula] where XC is the fluorescence signal from the compound-treated well; MB is the average fluorescence signal from puromycin-treated wells; MD is the average fluorescence signal from DMSO-treated wells. The anti-HCV replication activity was determined by the luminescence signal generated from the reporter renilla luciferase of the HCV replicon. The percent inhibition on HCV replicon was calculated using equation 1, where XC is the luminescence signal from compound-treated well; MB is average luminescence signal from the ITMN-191-treated wells; MD is the average luminescence signal from DMSO-treated wells.
# (§2) Both CC50 and EC50 values were obtained using Pipeline Pilot 5.0 software package (Accelrys, San Diego, Calif.) by nonlinear regression fitting of experimental data to equation 2: […]
# [3] = tested on: GT1b and GT1a mutant replicons; test: Biological Example 8: summary of cross resistance of mutant replicons; assay type: cell-based, HCV; conditions: triple class mutants that confer resistance to PI, NS5A and Compound 1
# Description: (§3) GT1b and GT1a replicons carrying Renilla Luciferase reporter were used to generate the mutant replicons. The mutations were introduced into the replicon construct by site-directed mutagenesis and confirmed by sequencing. Mutant replicon RNAs were generated from DNA by in vitro transcription and transfected into Huh-7 Lunet or C1 cells
# (§4) Compounds were serially diluted 1:3 in 100% DMSO (Sigma). These serial dilutions were added to the cells at a 1:200 dilution to achieve a final concentration of 0.5% DMSO in a total volume of 200 μL. […] EC50 values were calculated using Prism.
# (§5) For comparison, a fold change of 0-3 is considered “sensitive”, a fold change of 3-10 is considered “low”, a fold change of 10-50 is considered “medium” and a fold change of greater than […] is considered “high”.
# [4] = tested on: NS3 GT1a mutant replicons; assay type: cell-based, HCV
# Description: as §3, §4, §5
# [5] = tested on: NS3 GT1b mutant replicons; assay type: cell-based, HCV
# Description: as §3, §4, §5
# HCV genotype 1a replicon [6] = test: Biological Example 3: HCV genotype 1a replicon assay, EC50; assay type: cell-based; conditions: Hepatitis C virus, 72 h, 3 days, read-out: EC50
# Description: The HCV genotype 1a replicon cell line used in this study was described previously. The cells were grown in cell culture medium containing Dulbecco's Modified Eagle Medium (DMEM) with GlutaMAX (Gibco, Carlsbad, Calif., Cat#10569-044), supplemented with 10% FBS (HyClone, Logan, Utah, Cat#SH30071.03), 100 Units/mL Penicillin, 100 μg/mL Streptomycin (Gibco, Carlsbad, Calif., Cat#15140-122), and 0.1 mM non-essential amino acids (Gibco, Carlsbad, Calif., Cat#11140-050). Replicon cells were maintained in 0.5 mg/mL Geneticin (Invitrogen, Carlsbad, Calif., Cat#10131-035) to prevent the loss of HCV replicon. The cells were passaged every 3-4 days before reaching confluency.
# as §1, §2
# HCV genotype 1a replicon [7] = test: Biological Example 3: antiviral combination studies with Compound 4 (MacSynergy II); conditions: in combination with Compound 4
# HCV 1b replicon system = test: Biological Example 5: antiviral combination studies with Compound 6 (MacSynergy II); assay type: cell-based; conditions: in combination with Compound 6
# GT-1b Huh-lunet cells = test: Biological Example 4: antiviral combination studies with Compound 5 (MacSynergy II); assay type: cell-based, HCV; conditions: in combination with Compound 5, 1b replicon cells
structure (smiles),measurement,setting,value
"CC1=CC[C@H](C(=O)N(c2cc(C#CC(C)(C)C)sc2C(=O)O)[C@H]2CC[C@](O)(CO[C@H]3CCOC3)CC2)CC1 [Compound 5, 5-(3,3-dimethylbut-1-yn-1-yl)-3-[(cis-4-hydroxy-4-{[(3S)-tetrahydrofuran-3-yloxy]methyl}cyclohexyl){[(1R)-4-methylcyclohex-3-en-1-yl]carbonyl}amino]thiophene-2-carboxylic acid]",Antagonism Volume (cytotoxicity),[1],−10 ± 7 nM^2%
same,Interaction (cytotoxicity),[1],Additivity (Additivity: ≦25 and >−25 nM^2%)
same,Synergy Volume (cytotoxicity),[1],15 ± 8 nM^2%
same,CC50 at 3 days,[2],> 44400 nM
same,susceptibility of mutants,[3],susceptible
same,fold change in EC50 vs wild-type GT1a,[4]; mutant A156T,0.4 fold
same,fold change in EC50 vs wild-type GT1a,[4]; mutant D168A,1.1 fold
same,fold change in EC50 vs wild-type GT1a,[4]; mutant D168E,0.7 fold
same,fold change in EC50 vs wild-type GT1a,[4]; mutant D168G,1.0 fold
same,fold change in EC50 vs wild-type GT1a,[4]; mutant D168H,1.1 fold
same,fold change in EC50 vs wild-type GT1a,[4]; mutant D168N,1.3 fold
same,fold change in EC50 vs wild-type GT1a,[4]; mutant D168V,1.1 fold
same,fold change in EC50 vs wild-type GT1a,[4]; mutant D168Y,0.7 fold
same,fold change in EC50 vs wild-type GT1a,[4]; mutant R155I,0.7 fold
same,fold change in EC50 vs wild-type GT1a,[4]; mutant R155K,0.8 fold
same,fold change in EC50 vs wild-type GT1a,[4]; mutant R155K + L31M,0.4 fold
same,fold change in EC50 vs wild-type GT1a,[4]; mutant R155K + L31M + Y448H,0.3 fold
same,fold change in EC50 vs wild-type GT1a,[4]; mutant R155K + M28T,0.8 fold
same,fold change in EC50 vs wild-type GT1a,[4]; mutant R155K + M28T + Y448H,0.3 fold
same,fold change in EC50 vs wild-type GT1a,[4]; mutant R155K + Q30H + Y448H,0.5 fold
same,fold change in EC50 vs wild-type GT1a,[4]; mutant R155K + Q30R,1.5 fold
same,fold change in EC50 vs wild-type GT1a,[4]; mutant R155K + Y93H,0.6 fold
same,fold change in EC50 vs wild-type GT1a,"[4]; mutant R155K + Y488H (first line, r20)",1.0 fold
same,fold change in EC50 vs wild-type GT1a,"[4]; mutant R155K + Y488H (second line, r26)",0.6 fold
same,fold change in EC50 vs wild-type GT1a,[4]; mutant R155M,0.7 fold
same,fold change in EC50 vs wild-type GT1a,[4]; mutant R155S,0.5 fold
same,fold change in EC50 vs wild-type GT1a,[4]; mutant R155T,0.6 fold
same,fold change in EC50 vs wild-type GT1a,[4]; mutant R155W,1.0 fold
same,fold change in EC50 vs wild-type GT1a,[4]; mutant R155k + Q30H,0.6 fold
same,fold change in EC50 vs wild-type GT1b,[5]; mutant A156D,0.8 fold
same,fold change in EC50 vs wild-type GT1b,[5]; mutant A156G,0.8 fold
same,fold change in EC50 vs wild-type GT1b,[5]; mutant A156T,0.7 fold
same,fold change in EC50 vs wild-type GT1b,[5]; mutant A156V,0.8 fold
same,fold change in EC50 vs wild-type GT1b,[5]; mutant D168A,0.9 fold
same,fold change in EC50 vs wild-type GT1b,[5]; mutant D168E,0.9 fold
same,fold change in EC50 vs wild-type GT1b,[5]; mutant D168E + L31V + Y448H,0.8 fold
same,fold change in EC50 vs wild-type GT1b,[5]; mutant D168E + Y93H + Y448H,0.5 fold
same,fold change in EC50 vs wild-type GT1b,[5]; mutant D168E + Y448H,0.4 fold
same,fold change in EC50 vs wild-type GT1b,[5]; mutant D168G,0.8 fold
same,fold change in EC50 vs wild-type GT1b,[5]; mutant D168H,1.0 fold
same,fold change in EC50 vs wild-type GT1b,[5]; mutant D168H + C445F,0.4 fold
same,fold change in EC50 vs wild-type GT1b,[5]; mutant D168L + C445F,0.2 fold
same,fold change in EC50 vs wild-type GT1b,[5]; mutant D168N,1.1 fold
same,fold change in EC50 vs wild-type GT1b,[5]; mutant D168T,1.0 fold
same,fold change in EC50 vs wild-type GT1b,[5]; mutant D168V,1.3 fold
same,fold change in EC50 vs wild-type GT1b,[5]; mutant D168V + C445F,0.3 fold
same,fold change in EC50 vs wild-type GT1b,[5]; mutant D168V + L31V + Y448H,0.6 fold
same,fold change in EC50 vs wild-type GT1b,[5]; mutant D168V + Y93H + Y448H,0.6 fold
same,fold change in EC50 vs wild-type GT1b,[5]; mutant D168V + Y448H,0.5 fold
same,fold change in EC50 vs wild-type GT1b,[5]; mutant D168Y,1.1 fold
same,fold change in EC50 vs wild-type GT1b,[5]; mutant L31V + D168E,1.3 fold
same,fold change in EC50 vs wild-type GT1b,[5]; mutant L31V + D168V,1.1 fold
same,fold change in EC50 vs wild-type GT1b,[5]; mutant R155C,0.6 fold
same,fold change in EC50 vs wild-type GT1b,[5]; mutant R155G,0.8 fold
same,fold change in EC50 vs wild-type GT1b,[5]; mutant R155K,1.2 fold
same,fold change in EC50 vs wild-type GT1b,[5]; mutant R155L,0.8 fold
same,fold change in EC50 vs wild-type GT1b,[5]; mutant R155Q,0.6 fold
same,fold change in EC50 vs wild-type GT1b,[5]; mutant R155W,0.5 fold
same,fold change in EC50 vs wild-type GT1b,[5]; mutant Y93H + D168E,1.0 fold
same,fold change in EC50 vs wild-type GT1b,[5]; mutant Y93H + D168V,0.5 fold
same,EC50,HCV genotype 1a replicon [6],15 ± 2.4 nM
same,Antagonism Volume,HCV genotype 1a replicon [7],−1 ± 3 nM^2%
same,Synergy Volume,HCV genotype 1a replicon [7],26 ± 28 nM^2%
"COc1ccc2c(O[C@@H]3C[C@H]4C(=O)N[C@]5(P(=O)(O)Cc6c(F)cccc6F)C[C@H]5CCCCCCC[C@H](NC(=O)OC5CCCC5)C(=O)N4C3)cc(-c3csc(NC(C)C)n3)nc2c1Cl [Compound 2, (2R,6S,13aR,14aS,16aS)-2-(8-chloro-2-(2-(isopropylamino)thiazol-4-yl)-7-methoxyquinolin-4-yloxy)-6-(cyclopentyloxycarbonylamino)-5,16-dioxooctadecahydrocyclopropa[e]pyrrolo[1,2-a][1,4]diazacyclopentadecin-14a-yl(2,6-difluorobenzyl)phosphinic acid]",Antagonism Volume (cytotoxicity),[1],0 ± 0 nM^2%
same,Interaction (cytotoxicity),[1],Additivity (Additivity: ≦25 and >−25 nM^2%)
same,Synergy Volume (cytotoxicity),[1],17 ± 14 nM^2%
same,CC50 at 3 days,[2],> 22200 nM
same,Interaction,HCV 1b replicon system,Moderate Synergy
same,EC50,HCV genotype 1a replicon [6],496 ± 135 nM
same,Antagonism Volume,HCV genotype 1a replicon [7],−2 ± 3 nM^2%
same,Interaction,HCV genotype 1a replicon [7],Additivity (Additivity: ≦25 and >−25 nM^2%)
same,Synergy Volume,HCV genotype 1a replicon [7],22 ± 14 nM^2%
same,Interaction,GT-1b Huh-lunet cells,Additive
same,Synergy Volume,GT-1b Huh-lunet cells,22 ± 12 nM^2

# Reference: patent US9452154B2, “Methods for treating HCV” (Gilead Sciences, Inc., priority 2010, dated 2016)
